Like-named read-outs stand apart in the source and are kept apart here.
Columns and labels:
[1] = system: juvenile S. japonicum; test: microbe, parasite or virus in culture; format: cell-based; settings: for mortality at 50 µM / killing at 2 µM / killing at 5 µM / killing at 50 µM / mortality at 100 µM: Schistosoma japonicum; for mortality at 50 µM / mortality at 100 µM: read-out: Mortality of juvenile worms; for killing at 2 µM / killing at 5 µM / killing at 50 µM / Killing activity 24hr / Killing activity 48hr / Killing activity 72hr: juvenile worms; for Killing activity 24hr / Killing activity 48hr / Killing activity 72hr: 10 μM
Summary of the method: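 Juvenile S. japonicum, 20–30 tail-shed cercariae per well, were exposed to compounds at 2, 5, 10 and 50 μM in RPMI 1640 with 10% FBS and HEPES. Survival was scored microscopically at 24, 48 and 72 h, with death defined by disrupted internal structure or tegument or 1 min without motility. % D is dead/total, averaged over three experiments.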

[2] = system: adult S. japonicum; test: microbe, parasite or virus in culture; format: cell-based; settings: for killing at 25 µM / killing at 50 µM / killing at 100 µM / Killing activity 24hr / Killing activity 48hr / Killing activity 72hr: adult worms; for Killing activity 24hr / Killing activity 48hr / Killing activity 72hr: 10 μM
Summary of the method: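 Adult worm pairs recovered by portal perfusion from ICR mice 35 days after infection with 50 cercariae, cultured in RPMI 1640 (pH 7.5, 20 mM HEPES, 10% FBS) at 37 °C, 5% CO2. Oxadiazole-2-oxides at 10, 25, 50, 100 μM; motility and survival scored microscopically at 24, 48, 72 h, death being no movement over 2 min; three independent experiments averaged.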

[3] = 24 h, read-out: Killing activity 24hr
[4] = 48 h, read-out: Killing activity 48hr
[5] = 72 h, read-out: Killing activity 72hr
[6] = Schistosoma japonicum, 24 h, read-out: Mortality of adult worms
[7] = Schistosoma japonicum, 72 h, read-out: Mortality of adult worms
[8] = Schistosoma japonicum, 24 h, read-out: Killing activity 24hr
[9] = Schistosoma japonicum, 48 h, read-out: Killing activity 48hr
[10] = Schistosoma japonicum, 72 h, read-out: Killing activity 72hr
[11] = Schistosoma japonicum, read-out: Mortality of adult worms

Row | Compound | killing at 2 µM [1, 3] [%] | killing at 2 µM [1, 4] [%] | killing at 2 µM [1, 5] [%] | killing at 5 µM [1, 3] [%] | killing at 5 µM [1, 4] [%] | killing at 5 µM [1, 5] [%] | killing at 50 µM [1, 3] [%] | killing at 50 µM [1, 4] [%] | killing at 50 µM [1, 5] [%] | Killing activity 24hr ([1]; 24 h) [%D] | Killing activity 48hr ([1]; 48 h) [%D] | Killing activity 72hr ([1]; 72 h) [%D] | killing at 25 µM [2, 8] [%] | killing at 25 µM [2, 9] [%] | killing at 25 µM [2, 10] [%] | killing at 50 µM [2, 8] [%] | killing at 50 µM [2, 9] [%] | killing at 50 µM [2, 10] [%] | killing at 100 µM [2, 8] [%] | killing at 100 µM [2, 9] [%] | further results
1 | N#Cc1c(-c2ccc(Br)cc2)no[n+]1[O-] [Compound 7c] | 100 | 100 | 100 | 100 | 100 | 100 | 100 | 100 | 100 | 100.0 | 100.0 | 100.0 | 77.8 | 100 | 100 | 100 | 100 | 100 | 100 | 100 | mortality at 50 µM ([1]; 24 h): > 70%; mortality at 50 µM ([1]; 72 h): 100%; mortality at 25 µM [2, 6]: > 75%; mortality at 50 µM [2, 6]: 100%; mortality at 10 µM [2, 7]: 70 ± 7.1%; killing at 100 µM [2, 10]: 100%; Killing activity 24hr ([2]; 24 h): n.e.; Killing activity 48hr ([2]; 48 h): 70.0%D; Killing activity 72hr ([2]; 72 h): 70.0%D
2 | COc1ccc(-c2no[n+]([O-])c2CO)cc1 [Compound 4a] | 29.4 | 35.3 | 44.1 | 36.2 | 48.9 | 53.2 | 56.8 | 88.6 | 90.9 | 26.7 | 37.8 | 58.9 | 50 | 100 | 100 | 88.9 | 100 | 100 | 100 | 100 | mortality at 100 µM ([1]; 72 h): 90 ± 2.8%; mortality at 100 µM [2, 11]: 100%; killing at 100 µM [2, 10]: 100%; Killing activity 24hr ([2]; 24 h): 37.5%D; Killing activity 48hr ([2]; 48 h): 37.5%D; Killing activity 72hr ([2]; 72 h): 50.0%D
3 | N#Cc1c(-c2ccc(COc3ccc(C=O)cc3)cc2)no[n+]1[O-] [Compound 26] | 36.4 | 36.4 | 50.9 | 48.9 | 48.9 | 53.2 | 46.3 | 63.4 | 85.4 | 56.1 | 61.0 | 80.5 | 85.7 | 100 | 100 | 100 | 100 | 100 | 100 | 100 | mortality at 25 µM [2, 6]: > 75%; killing at 100 µM [2, 10]: 100%; Killing activity 24hr ([2]; 24 h): n.e.; Killing activity 48hr ([2]; 48 h): n.e.; Killing activity 72hr ([2]; 72 h): 16.7%D
4 | COc1ccc(-c2no[n+]([O-])c2C#N)cc1 [Compound 7a] | 14.6 | 29.2 | 41.7 | 15.7 | 39.2 | 39.2 | 46.2 | 53.3 | 70 | 36.7 | 36.7 | 60.0 | 88.9 | 100 | 100 | 87.5 | 100 | 100 | 100 | 100 | mortality at 25 µM [2, 6]: > 75%; mortality at 10 µM [2, 7]: 100%; killing at 100 µM [2, 10]: 100%; Killing activity 24hr ([2]; 24 h): 70.0%D; Killing activity 48hr ([2]; 48 h): 100.0%D; Killing activity 72hr ([2]; 72 h): 100.0%D
5 | Cc1ccc(-c2no[n+]([O-])c2CO)cc1 [Compound 4b] | 35.2 | 35.2 | 42.3 | 42.9 | 46.9 | 51 | 76.5 | 88.2 | 100 | 48.0 | 50.0 | 60.0 | 63.6 | 81.8 | 66.7 | 60 | 80 | 100 | 57.1 | 100 | mortality at 50 µM ([1]; 24 h): > 70%; mortality at 100 µM ([1]; 72 h): 100%; mortality at 100 µM [2, 6]: 57.1 ± 2.1%; mortality at 100 µM ([2]; Schistosoma japonicum, 48 h, read-out: Mortality of adult worms): 100%; killing at 100 µM [2, 10]: 100%; Killing activity 24hr ([2]; 24 h): n.e.; Killing activity 48hr ([2]; 48 h): n.e.; Killing activity 72hr ([2]; 72 h): n.e.
6 | C#CCOc1ccc(-c2no[n+]([O-])c2C#N)cc1 [Compound 20] | 8.5 | 14.2 | 19.9 | 20 | 24 | 34 | 45.6 | 48.5 | 67.6 | 43.4 | 45.3 | 52.8 | 50 | 100 | 100 | 70 | 100 | 100 | 100 | 100 | mortality at 100 µM ([1]; 72 h): 67.6 ± 4.5%; mortality at 100 µM [2, 11]: 100%; killing at 100 µM [2, 10]: 100%; Killing activity 24hr ([2]; 24 h): n.e.; Killing activity 48hr ([2]; 48 h): 50.0%D; Killing activity 72hr ([2]; 72 h): 75.0%D

— paper PMC4721062, “Oxadiazole-2-oxides may have other functional targets, in addition to SjTGR, through which they cause mortality in Schistosoma japonicum” (Parasites & Vectors, 2016)
